Assay results as given in patent publication US20100286024A1, “Insulinotropic compounds and uses thereof” (priority 2005, published 2010).

Columns and labels:
DPP-IV [1] = molecular target: DPP-IV (Homo sapiens, UniProt P27487); experiment: Dipeptidyl Peptidase IV (DPP-IV) digestion, stability by RP-HPLC (Example 10); type: in vitro ADME
From the text: (§1) Their stabilities were monitored by RP-HPLC, noting the disappearance of the intact sequence and appearance of a species missing the N terminal dipeptide or similar fragment.

DPP-IV [2] = experiment: as above; type: in vitro ADME; conditions: DPP-IV (isolated peptidase); pH 7.5, 37° C., DPP-IV, 22 hr; new species at 3220 mu, loss of the His-Ala dimer; read-out: share hydrolyzed by DPP-IV within 22 hr
From the text: as §1

[3] = Control study: chemical stability in PBS/triethanolamine without DPP-IV; type: physicochemical; conditions: PBS/triethanolamine solution without DPP-IV, PBS/TEthA, pH 7.5, 37°, no DPP-IV, read-out: percentage of peptide remaining
Experimental: In the control study, peptides were incubated with PBS/triethanolamine solution in the absence of DPP-IV to measure their chemical stability.

beta TC-6 cell line = experiment: Insulin release assay (insulin ELISA); type: cell-based, mouse; conditions: for Insulin release: 5 mM glucose, 30 minutes, Beta-TC-6 cells, cells only 1.37-3.67
Experimental: This was derived from a pancreatic tumor (insulinoma) arising in a transgenic mouse.
Beta-TC-6 cells were purchased from A.T.C.C. (A.T.C.C. number CCL-11506; Manassas, Va., U.S.A.). Beta-TC-6 cells were cultured in Dulbecco's Modified Eagle's medium supplemented with 15% (v/v) heat-inactivated foetal bovine serum, 1% (v/v) glutamine, 0.45% (w/v) glucose and 0.15% (w/v) sodium bicarbonate at 37° C. in a humidified 5% CO2 atmosphere. Beta-TC-6 cells form islands and the monolayer never becomes confluent; cells were passaged at 70% confluence (7 days from seeding) at a subcultivation ratio of 1:4. The monolayer was disrupted from the surface of the culture flask with 0.25% (w/v) Trypsin-0.53 mM EDTA.
Beta-TC-6 cells were cultured in 12 well plates for between 4-8 days prior to use. Cells were cultured in Krebs-Ringer (10 mM Hepes, pH 7.4, 136 mM NaCl, 4.7 mM KCl and 1.25 mM MgSO4) supplemented with 5 mM glucose for 1 hr at 37° C. in a humidified 5% CO2 atmosphere. This medium was removed, cells washed with Krebs-Ringer. Beta-TC-6 cells were then cultured in 1 ml per well of Krebs-Ringer supplemented with 5 mM glucose and 0, 0.12, 0.6, 3 and 15 μM of peptide in duplicate for 30 minutes at 37° C. in a humidified 5% CO2 atmosphere. Medium was removed, diluted 1:5, and insulin concentration determined using an insulin ELISA kit (Mercodia, Uppsala, Sweden) according to the manufacturer's protocol. Beta-TC-6 cells were washed three times with ice-cold PBS and extracted into 0.5 ml lysis buffer (62.5 mM Tris, pH 7.5, and 1%, v/v, SDS) per well. Protein concentration was determined by Lowry assay. […] Only single-sided p values are shown.

Sequence of DPP-IV (Homo sapiens, UniProt P27487) (P27487 whole entry, species assumed): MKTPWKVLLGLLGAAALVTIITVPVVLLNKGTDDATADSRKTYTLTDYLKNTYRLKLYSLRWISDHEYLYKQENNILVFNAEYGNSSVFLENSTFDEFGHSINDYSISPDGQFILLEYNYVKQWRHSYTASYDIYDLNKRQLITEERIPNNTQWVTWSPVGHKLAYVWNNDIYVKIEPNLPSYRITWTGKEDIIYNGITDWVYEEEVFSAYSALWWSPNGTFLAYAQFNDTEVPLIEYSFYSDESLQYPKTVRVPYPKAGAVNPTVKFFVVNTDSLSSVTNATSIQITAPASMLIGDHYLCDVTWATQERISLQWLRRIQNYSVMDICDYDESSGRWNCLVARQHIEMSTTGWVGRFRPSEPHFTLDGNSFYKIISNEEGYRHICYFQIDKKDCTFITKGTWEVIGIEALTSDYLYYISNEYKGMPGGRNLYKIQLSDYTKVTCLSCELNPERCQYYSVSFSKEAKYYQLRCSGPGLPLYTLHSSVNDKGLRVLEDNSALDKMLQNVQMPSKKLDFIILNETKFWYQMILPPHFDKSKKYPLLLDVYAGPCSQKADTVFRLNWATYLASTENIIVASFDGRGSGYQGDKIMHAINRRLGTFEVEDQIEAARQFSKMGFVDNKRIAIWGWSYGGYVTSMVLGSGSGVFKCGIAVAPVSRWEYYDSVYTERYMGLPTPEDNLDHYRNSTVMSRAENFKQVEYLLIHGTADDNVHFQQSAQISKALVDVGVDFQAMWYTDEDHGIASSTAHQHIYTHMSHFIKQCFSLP

- remaining at 22 h (DPP-IV [1]; DPP-IV (isolated peptidase), PBS/TEthA, pH 7.5, 37°, DPP-IV, 22 hr, read-out: percentage of analogue remaining): < 5%
- remaining at 47 h (DPP-IV [1]; DPP-IV (isolated peptidase), PBS/TEthA, pH 7.5, 37°, DPP-IV, 47 hr, read-out: percentage of analogue remaining): < 5%
- susceptibility to DPP-IV hydrolysis (DPP-IV [1]; pH 7.5, 37° C., up to 47 hr): susceptible to DPP-IV hydrolysis
- metabolised at 22 h (DPP-IV [2]): > 90%
- remaining at 22 h ([3]; 22 hr): 95%
- remaining at 47 h ([3]; 47 hr): 95%
Structure (SMILES): CC[C@H](C)[C@H](NC(=O)[C@H](Cc1ccccc1)NC(=O)[C@H](CCC(=O)O)NC(=O)[C@H](CCCCN)NC(=O)[C@H](C)NC(=O)[C@H](C)NC(=O)[C@H](CCC(N)=O)NC(=O)CNC(=O)[C@H](CCC(=O)O)NC(=O)[C@H](CC(C)C)NC(=O)[C@H](Cc1ccc(O)cc1)NC(=O)[C@H](CO)NC(=O)[C@H](CO)NC(=O)[C@@H](NC(=O)[C@H](CC(=O)O)NC(=O)[C@H](CO)NC(=O)[C@@H](NC(=O)[C@H](Cc1ccccc1)NC(=O)[C@@H](NC(=O)CNC(=O)[C@H](CCC(=O)O)NC(=O)CNNC(=O)[C@H](C)NC(=O)[C@@H](N)Cc1c[nH]cn1)[C@@H](C)O)[C@@H](C)O)C(C)C)C(=O)N[C@@H](C)C(=O)N[C@@H](Cc1c[nH]c2ccccc12)C(=O)N[C@@H](CC(C)C)C(=O)N[C@H](C(=O)N[C@@H](CCCCN)C(=O)NCC(=O)N[C@@H](CCCNC(=N)N)C(=O)NCC(=O)O)C(C)C [SP007, L-His-L-Ala-NH—NH—CH2—C(O)-Glu9-37]
- Insulin release (beta TC-6 cell line; 3 μM peptide): 4.51 ng/min/mg
- Activity of 3 μM of each peptide as percentage of insulin release by cells only (beta TC-6 cell line; 3 μM peptide, cells alone=100%): 113 ± 65%
- Insulin release (beta TC-6 cell line; 15 μM peptide): 8.08 ng/min/mg
- Activity of 15 μM of each peptide as percentage of insulin release by cells only (beta TC-6 cell line; 15 μM peptide, cells alone=100%): 235 ± 91%
